Measurements reported in US20160296529A1, “AMINOTRIAZOLOPYRIDINE FOR USE IN THE TREATMENT OF INFLAMMATION, AND PHARMACEUTICAL COMPOSITIONS THEREOF” (priority 2012, published 2016).
Several values for one entry are separate records, joined by “and”; a condition that tells them apart may be missing. Equal entries are not always repeated. Where two headings read alike, the source gives them in different places.

How the values were obtained:
[1] = system: IL-6-induced STAT1 phosphorylation (JAK1-dependent pathway); assay: Human whole blood assay (hWBA), IL-6 stimulation, phospho-STAT1 on CD4+ cells; type: cell-based
Procedure: A flow cytometry analysis was performed to establish JAK1 over JAK2 compound selectivity ex vivo using human whole blood. Therefore, blood is taken from human volunteers who gave informed consent. Blood is then equilibrated for 30 min at 37° C. under gentle rocking, then aliquoted in Eppendorf tubes. Compound is added at different concentrations and incubated at 37° C. for 30 min under gentle rocking and subsequently stimulated for 20 min at 37° C. under gentle rocking with interleukin 6 (IL-6) for JAK1-dependent pathway stimulation or GM-CSF for JAK2-dependent pathway stimulation. Phospho-STAT1 and phospho-STAT5 are then evaluated using FACS analysis. […]
Cells were then washed once with 1×PBS and analyzed on a FACSCanto II flow cytometer (BD Biosciences).
50,000 total events are counted and Phospho-STAT1 positive cells are measured after gating on CD4^+ cells, in the lymphocyte gate. Data are analyzed using the FACSDiva software and the percentage of inhibition of IL-6 stimulation calculated from the percentage of positive cells for phospho-STAT1 on CD4+ cells.
A flow cytometry analysis was performed to establish JAK1 over JAK2 compound selectivity ex vivo using human whole blood. […] Phospho-STAT1 (for IL-6- and IFNα-stimulated cells) and phospho-STAT5 (for IL-2- and GM-CSF-stimulated cells) levels are then evaluated using FACS analysis. […]

[2] = biological target: T1, Recombinant human JAK2 catalytic domain (Homo sapiens, UniProt O60674); assay: JAK2 Ulight-JAK1 peptide assay; type: biochemical
T1 construct: amino acids 808-1132; catalog number PV4210; GST; purchased Invitrogen PV4210
Procedure: 0.0125 mU of JAK2 was incubated with 25 nM Ulight-JAK1(tyr1023) peptide (Perkin Elmer catalog number TRF0121) in kinase reaction buffer (25 mM HEPES pH7.0, 0.01% Triton X-100, 7.5 mM MgCl2, 2 mM DTT, 7.5 μM ATP) with or without 4 μL containing test compound or vehicle (DMSO, 1% final concentration), in a total volume of 20 μL, in a white 384 Opti plate (Perkin Elmer, catalog number 6007290). After 60 min at room temperature, reactions were stopped by adding 20 μL/well of detection mixture (1× detection buffer (Perkin Elmer, catalog number CR97-100C), 0.5 nM Europium-anti-phosphotyrosine (PT66) (Perkin Elmer, catalog number AD0068), 10 mM EDTA). Readout was performed using the Envision with excitation at 320 nm and measuring emission at 615 nm (Perkin Elmer). Kinase activity was calculated by subtracting relative fluorescence units (RFU) obtained in the presence of a positive control inhibitor (10 μM staurosporine) from RFU obtained in the presence of vehicle. The ability of a test compound to inhibit this activity was determined as:
Percentage inhibition−((RFU determined for sample with test compound present−RFU determined for sample with positive control inhibitor) divided by (RFU determined in the presence of vehicle−RFU determined for sample with positive control inhibitor))*100. […]

T1 sequence (O60674 808-1132): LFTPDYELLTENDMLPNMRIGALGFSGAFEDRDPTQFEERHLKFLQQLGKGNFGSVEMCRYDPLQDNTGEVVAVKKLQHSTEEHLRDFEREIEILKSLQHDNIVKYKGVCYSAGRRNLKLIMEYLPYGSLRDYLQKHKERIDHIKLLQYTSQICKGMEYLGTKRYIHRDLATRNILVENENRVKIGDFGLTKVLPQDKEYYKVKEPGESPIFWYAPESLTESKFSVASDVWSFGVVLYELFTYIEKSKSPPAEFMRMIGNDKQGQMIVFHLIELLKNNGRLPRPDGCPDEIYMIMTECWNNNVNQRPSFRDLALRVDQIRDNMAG

Nc1nc2cccc(-c3ccc(CN4CCS(=O)(=O)CC4)cc3)n2n1 [Formula I, 5-[4-(1,1-Dioxothiomorpholin-4-ylmethyl)-phenyl]-[1,2,4]triazolo[1,5-a]pyridin-2-ylamine]
IC50 ([1]; human whole blood, 6 different donors): 11900 nM
selectivity for JAK1 over JAK2 ([1]; in vitro whole blood selectivity assay (IL-6 vs GM-CSF)): over 10 fold
IC50 ([2]; average, read-out: IC50 (average)): 397 nM
IC50 ([2]; individual determinations, read-out: IC50): 1030 nM and 517 nM and 351 nM and 138 nM and 367 nM and 310 nM and 729 nM and 152 nM and 203 nM and 168 nM
